# Results published in US20160251332A1, “Herbicidal Compounds” (SYNGENTA PARTICIPATIONS AG, priority 2013, published 2016).
# Key:
# Format in all cases: in vivo
# Zea mays [1] = assay: Pre-emergence herbicidal activity, ZEAMX; conditions: Application pre-emergence, 1000 g/Ha, evaluated after 13 days, scale 0-5
# Procedure: (§1) Seeds of a variety of test species were sown in standard soil in pots. After cultivation for one day (pre-emergence) under controlled conditions in a glasshouse (at 24/16° C., day/night; 14 hours light; 65% humidity), the plants were sprayed with an aqueous spray solution derived from the formulation of the technical active ingredient in acetone/water (50:50) solution containing 0.5% Tween 20 (polyoxyethelyene sorbitan monolaurate, CAS RN 9005-64-5). The test plants were then grown in a glasshouse under controlled conditions (at 24/16° C., day/night; 14 hours light; 65% humidity) and watered twice daily. After 13 days, the test was evaluated (5=total damage to plant; 0=no damage to plant).
# Abutilon theophrasti [2] = assay: Post-emergence herbicidal activity, ABUTH; conditions: Application post-emergence, 1000 g/Ha, evaluated after 13 days, scale 0-5
# Procedure: (§2) Seeds of a variety of test species were sown in standard soil in pots. After 8 days cultivation (post-emergence) under controlled conditions in a glasshouse (at 24/16° C., day/night; 14 hours light; 65% humidity), the plants were sprayed with an aqueous spray solution derived from the formulation of the technical active ingredient in acetone/water (50:50) solution containing 0.5% Tween 20 (polyoxyethelyene sorbitan monolaurate, CAS RN 9005-64-5). The test plants were then grown in a glasshouse under controlled conditions (at 24/16° C., day/night; 14 hours light; 65% humidity) and watered twice daily. After 13 days, the test was evaluated (5=total damage to plant; 0=no damage to plant).
# Amaranthus retroflexus [3] = assay: Pre-emergence herbicidal activity, AMARE; conditions: Application pre-emergence, 1000 g/Ha, evaluated after 13 days, scale 0-5
# Procedure: as §1
# Echinochloa crus-galli [4] = assay: Post-emergence herbicidal activity, ECHCG; conditions: Application post-emergence, 1000 g/Ha, evaluated after 13 days, scale 0-5
# Procedure: as §2
# Abutilon theophrasti [5] = assay: Pre-emergence herbicidal activity, ABUTH; conditions: Application pre-emergence, 1000 g/Ha, evaluated after 13 days, scale 0-5
# Procedure: as §1
# Setaria faberi [6] = assay: Pre-emergence herbicidal activity, SETFA; conditions: Application pre-emergence, 1000 g/Ha, evaluated after 13 days, scale 0-5
# Procedure: as §1
# Zea mays [7] = assay: Post-emergence herbicidal activity, ZEAMX; conditions: Application post-emergence, 1000 g/Ha, evaluated after 13 days, scale 0-5
# Procedure: as §2
# Amaranthus retroflexus [8] = assay: Post-emergence herbicidal activity, AMARE; conditions: Application post-emergence, 1000 g/Ha, evaluated after 13 days, scale 0-5
# Procedure: as §2
# Echinochloa crus-galli [9] = assay: Pre-emergence herbicidal activity, ECHCG; conditions: Application pre-emergence, 1000 g/Ha, evaluated after 13 days, scale 0-5
# Procedure: as §1
# Setaria faberi [10] = assay: Post-emergence herbicidal activity, SETFA; conditions: Application post-emergence, 1000 g/Ha, evaluated after 13 days, scale 0-5
# Procedure: as §2
Compound,ZEAMX damage score (Zea mays [1]),ABUTH damage score (Abutilon theophrasti [2]),AMARE damage score (Amaranthus retroflexus [3]),ECHCG damage score (Echinochloa crus-galli [4]),ABUTH damage score (Abutilon theophrasti [5]),SETFA damage score (Setaria faberi [6]),ZEAMX damage score (Zea mays [7]),AMARE damage score (Amaranthus retroflexus [8]),ECHCG damage score (Echinochloa crus-galli [9]),SETFA damage score (Setaria faberi [10])
COc1cncc(-c2cnc(N3C(=O)N(C)CC3O)cc2C(F)(F)F)c1 (stereo not drawn) [Compound A33],2,5,5,5,5,3,4,5,4,5
COC(F)(F)c1ccnc(N2C(=O)N(C)CC2O)c1 (stereo not drawn) [Compound A50],1,5,5,5,2,2,1,5,1,5
COCc1cnc(N2C(=O)N(C)CC2O)cc1C(F)(F)F (stereo not drawn) [Compound A51],3,5,5,5,5,5,3,5,5,5
CN1CC(O)N(c2cc(Cl)c(C(=O)NC(C)(C)C)cn2)C1=O (stereo not drawn) [Compound A45],3,5,5,5,5,5,5,5,5,5
CN1CC(O)N(c2cc(C(F)(F)C(F)(F)F)ccn2)C1=O (stereo not drawn) [Compound A48],2,5,5,5,5,5,3,5,4,5
COC(C)(C)c1ccnc(N2C(=O)N(C)CC2O)c1 (stereo not drawn) [Compound A49],2,5,5,5,5,5,3,5,5,5
COCCOCc1cnc(N2C(=O)N(C)CC2O)cc1C(F)(F)F (stereo not drawn) [Compound A52],4,5,5,5,5,5,5,5,5,5
CN1CC(O)N(c2cc(C(F)(F)F)c(-c3ccncc3C#N)cn2)C1=O (stereo not drawn) [Compound A29],3,5,5,5,5,5,4,5,5,5
C=Cc1cnc(N2C(=O)N(C)CC2O)cc1C(F)(F)F (stereo not drawn) [Compound A41],2,5,5,5,4,4,2,5,4,5
CN1CC(O)N(c2cc(C(F)(F)F)c(-c3cnc(C#N)nc3)cn2)C1=O (stereo not drawn) [Compound A27],1,5,5,5,5,2,3,5,3,3
CC(=O)Nc1ccccc1-c1cnc(N2C(=O)N(C)CC2O)cc1C(F)(F)F (stereo not drawn) [Compound A35],1,5,5,4,2,2,1,5,2,4
Cc1ccc(-c2cnc(N3C(=O)N(C)CC3O)cc2C(F)(F)F)cn1 (stereo not drawn) [Compound A20],3,5,5,5,5,5,4,5,5,5
CN1CC(O)N(c2cc(C(F)(F)F)c(-c3cnn(C)c3)cn2)C1=O (stereo not drawn) [Compound A28],3,5,5,5,5,4,5,5,5,5
CN1CC(O)N(c2cc(C(F)(F)F)c(-c3ccc(Cl)nc3)cn2)C1=O (stereo not drawn) [Compound A21],3,5,5,5,5,5,5,5,5,5
COc1ccc(-c2cnc(N3C(=O)N(C)CC3O)cc2C(F)(F)F)c(OC)n1 (stereo not drawn) [Compound A25],2,5,5,5,5,3,2,5,5,5
CN1CC(O)N(c2cc(C(F)F)c(Cl)cn2)C1=O (stereo not drawn) [Compound A47],0,,4,4,4,4,,,4,
CN1CC(O)N(c2cc(C(F)(F)Cl)ccn2)C1=O (stereo not drawn) [Compound A46],2,,5,5,5,5,,,4,
